Measured values from publication PMC9804084, “Multiple drug transporters contribute to the brain transfer of levofloxacin” (CNS Neuroscience & Therapeutics, 2022).

Assay: Stability of LVFX in QC samples (dialysate solvents) under storage conditions
Assay type: physicochemical
Conditions: for Calculated concentration (mean ± SD): n=3
Method: Using artificial cerebrospinal fluid (ACSF) and Ringer's solution as solvents, the LVFX concentration required for calibration and quality control (QC) samples was obtained by appropriate step‐by‐step dilution. A calibration curve was constructed using the relationship between the analyte peak area and analyte concentration obtained in the range of 0.01–30 μg/ml. Linearity was assessed by a weighted (1/x ^2) least squares regression analysis. The accuracy and precision of the method were evaluated by QC samples of high, medium, and low concentrations. Quantification of the concentration of QC samples was conducted three times on the same day to evaluate the intra‐day precision and accuracy. The same procedure was employed for 3 consecutive days to evaluate the inter‐day precision and accuracy of this method. The relative error (RE%) and relative standard deviation (RSD%) were used to evaluate the accuracy and precision, respectively. We evaluated the stability of LVFX in dialysates under short‐term (6 h) room temperature, low temperature (4°C), and freeze–thaw conditions (three cycles).

stability under storage conditions employed (QC samples, room temp 6 h, 4°C, freeze–thaw 3 cycles): stable
maximum deviation in stability test of QC samples (all storage conditions (Table 2)): 4.71%
Calculated concentration (mean ± SD) (freeze–thaw (3 cycles), nominal concentration 0.3 μg/ml): 0.289 ± 0.008 µg/mL
Calculated concentration (mean ± SD) (freeze–thaw (3 cycles), nominal concentration 3 μg/ml): 2.960 ± 0.140 µg/mL
Calculated concentration (mean ± SD) (freeze–thaw (3 cycles), nominal concentration 30 μg/ml): 29.959 ± 0.417 µg/mL
Calculated concentration (mean ± SD) (low temperature (4°C) 12 h, nominal concentration 0.3 μg/ml): 0.294 ± 0.012 µg/mL
Calculated concentration (mean ± SD) (low temperature (4°C) 12 h, nominal concentration 3 μg/ml): 3.055 ± 0.105 µg/mL
Calculated concentration (mean ± SD) (low temperature (4°C) 12 h, nominal concentration 30 μg/ml): 29.844 ± 0.102 µg/mL
Calculated concentration (mean ± SD) (short term (room temp) 6 h, nominal concentration 0.3 μg/ml): 0.293 ± 0.011 µg/mL
Calculated concentration (mean ± SD) (short term (room temp) 6 h, nominal concentration 3 μg/ml): 3.098 ± 0.056 µg/mL
Calculated concentration (mean ± SD) (short term (room temp) 6 h, nominal concentration 30 μg/ml): 30.608 ± 0.405 µg/mL
SMILES: C[C@H]1COc2c(N3CCN(C)CC3)c(F)cc3c(=O)c(C(=O)O)cn1c23 [LVFX, Levofloxacin]
